Inhibition data for 46 compounds are collected here from ChEMBL document CHEMBL5442379, “ASAP - SARS-CoV-2 nsp3 macrodomain single point” (2024).

The target of the assay is Replicase polyprotein 1ab (Severe acute respiratory syndrome coronavirus 2) (UniProt P0DTD1).

Description: Functional biochemical assay to identify treatments for viral infectious disease that targets SARS-COV-2 nsp3 macrodomain, whereby the mechanism of action displaces an ADP-Ribose modified peptide from the binding site. Utilizing a time-resolved fluorescence method to measure binding by reading the emitted fluorescence intensity in two wavelengths.

The term inhibition denotes the drop in the measured response relative to a control, in per cent. With `Cc1nc2cnccn2c1NC(=O)c1cc(-c2ccco2)[nH]n1`, for the setting “Concentration 50.0 uM, Number of replicates 2.0, Standard deviation 2.08 %”, the inhibition is -3.88%. With `CS(=O)(=O)N1CC[C@@H](COC(=O)c2ncnc3[nH]ccc23)C1`, the inhibition (Concentration 50.0 uM, Number of replicates 2.0, Standard deviation 2.196 %) amounted to 0.187%. On to `C[C@@H](NC(=O)c1cnn2ccc(C3CCN(C(=O)c4ccccc4)CC3)cc12)c1cc[nH]n1`, for which the inhibition is -4.99% (Concentration 49.75 uM, Number of replicates 2.0, Standard deviation 1.723 %) and -2.77% (Concentration 99.5 uM, Number of replicates 2.0, Standard deviation 0.833 %). With `COCc1nc(CNc2c(C#N)c(C)nn2C)cs1`, for the setting “Concentration 50.0 uM, Number of replicates 2.0, Standard deviation 4.858 %”, the inhibition came to 0.8%. On to `Cc1[nH]ncc1CN(C)C(=O)c1cnn2ccc(C3CCN(C(=O)c4ccccc4)CC3)cc12`, for which the inhibition by setting is: (Concentration 49.75 uM, Number of replicates 2.0, Standard deviation 5.917 %) -1.14%; (Concentration 99.5 uM, Number of replicates 2.0, Standard deviation 7.587 %) 0.307%. For the compound `OC[C@@]1(Cc2ccc(F)cc2)CCN(c2ncnc3[nH]ccc23)C1`, the inhibition (Concentration 50.0 uM, Number of replicates 2.0, Standard deviation 2.787 %) worked out at 5.07%. On to `CC(C)[C@@H](Nc1ncnc2[nH]ccc12)c1nc2ccccc2[nH]1`, for which the inhibition turned out to be 37.3% (Concentration 49.75 uM, Number of replicates 2.0, Standard deviation 3.253 %) and 52.5% (Concentration 99.5 uM, Number of replicates 2.0, Standard deviation 1.702 %). Take `O=C(O)c1sccc1C(=O)N1CCC(c2ccn3ncc(C(=O)N4CCCCC4)c3c2)CC1`: the inhibition reads like this: (Concentration 49.75 uM, Number of replicates 2.0, Standard deviation 1.624 %) 55.5%; (Concentration 99.5 uM, Number of replicates 2.0, Standard deviation 1.425 %) 71.5%. As to `CN(C(=O)c1ccc(NC(=O)Nc2ccccc2)cc1)[C@@H]1CN2CCC1CC2`, the inhibition by setting is: (Concentration 49.75 uM, Number of replicates 2.0, Standard deviation 0.826 %) -4.01%; (Concentration 99.5 uM, Number of replicates 2.0, Standard deviation 1.597 %) 2.77%. For `C[C@@H](Nc1ncnc2[nH]ccc12)c1cnn(Cc2ccccc2)c1`, the inhibition was -4.11% (Concentration 49.75 uM, Number of replicates 2.0, Standard deviation 0.659 %) and 3.18% (Concentration 99.5 uM, Number of replicates 2.0, Standard deviation 0.985 %). Take `O=C(O)c1ccsc1C(=O)N1CCC(c2ccn3ncc(C(=O)N4CCCCC4)c3c2)CC1`: the inhibition runs as follows: (Concentration 49.75 uM, Number of replicates 2.0, Standard deviation 4.674 %) 45%; (Concentration 99.5 uM, Number of replicates 2.0, Standard deviation 0.647 %) 61.2%. Consider `O=C(O)c1ccc2c(c1)ncn2-c1ccc(CNC(=O)c2ncnc3[nH]ccc23)cc1`, for which the inhibition (Concentration 99.5 uM, Number of replicates 2.0, Standard deviation 0.835 %) is -4.65%. On to `CSc1ccccc1NC(=O)c1ncnc2[nH]ccc12`, for which the inhibition (Concentration 50.0 uM, Number of replicates 2.0, Standard deviation 3.62 %) is -5.8%.

As to `O=C(c1ccnnc1O)N1CCC(c2ccn3ncc(C(=O)N4CCCCC4)c3c2)CC1`, the inhibition is -7.59% (Concentration 49.75 uM, Number of replicates 2.0, Standard deviation 0.647 %) and 10.2% (Concentration 99.5 uM, Number of replicates 2.0, Standard deviation 0.871 %). On to `Cc1[nH]c2ncnc(NC(=O)c3ncn(-c4ccccc4)n3)c2c1C`, for which the inhibition (Concentration 50.0 uM, Number of replicates 2.0, Standard deviation 1.407 %) was determined as 7.1%. With `CN(Cc1cn(C)nn1)C(=O)c1ccc(NC(=O)Nc2ccccc2)cc1`, the inhibition is, setting by setting: (Concentration 49.75 uM, Number of replicates 2.0, Standard deviation 0.56 %) 0.883%; (Concentration 99.5 uM, Number of replicates 2.0, Standard deviation 3.63 %) 0.566%. On to `C[C@@H](Cc1ccc(Cl)s1)Nc1ccc([C@@H](CC(=O)O)NC(=O)c2c[nH]c3ncncc23)cc1`, for which the inhibition runs as follows: (Concentration 49.75 uM, Number of replicates 2.0, Standard deviation 2.68 %) -1.54%; (Concentration 99.5 uM, Number of replicates 2.0, Standard deviation 2.267 %) 1.95%. Consider `Cc1ncc(NCc2cc3n(n2)CCOC3)cc1C(N)=O`, for which, under “Concentration 50.0 uM, Number of replicates 2.0, Standard deviation 4.482 %”, the inhibition came out at 0.46%.

For `NC1(C(=O)N(CCC(=O)N2CCNCC2)Cc2cccc(Cl)c2)CC(F)(F)C1`, the inhibition reads like this: (Concentration 49.75 uM, Number of replicates 2.0, Standard deviation 0.286 %) -3.48%; (Concentration 99.5 uM, Number of replicates 2.0, Standard deviation 3.805 %) -1.17%. Regarding `O=C(CCN(Cc1cccc(Cl)c1)C(=O)C1(O)CCCC1)N1CCNCC1`, the inhibition is -1.21% (Concentration 49.75 uM, Number of replicates 2.0, Standard deviation 1.82 %) and -1.78% (Concentration 99.5 uM, Number of replicates 2.0, Standard deviation 0.971 %).

As for `CC(C)[C@@H](Nc1ncnc2[nH]ccc12)C(F)F`, the inhibition by setting is: (Concentration 49.75 uM, Number of replicates 2.0, Standard deviation 1.25 %) 81.6%; (Concentration 99.5 uM, Number of replicates 2.0, Standard deviation 1.983 %) 91.7%. Turning to `O=C1CCC[C@@H](C(=O)N(CCC(=O)N2CCNCC2)Cc2cccc(Cl)c2)N1`, the inhibition is 2.42% (Concentration 49.75 uM, Number of replicates 2.0, Standard deviation 3.727 %) and -3.31% (Concentration 99.5 uM, Number of replicates 2.0, Standard deviation 3.7 %). On to `C[C@@]1(C(N)=O)CCCN1C(=O)c1cnn2ccc(C3CCN(C(=O)c4ccccc4)CC3)cc12`, for which the inhibition is -8.04% (Concentration 49.75 uM, Number of replicates 2.0, Standard deviation 3.259 %) and 10.4% (Concentration 99.5 uM, Number of replicates 2.0, Standard deviation 21.157 %). On to `O=C(Cc1ccon1)Nc1ncnc2[nH]cnc12`, for which, for the setting “Concentration 50.0 uM, Number of replicates 2.0, Standard deviation 0.023 %”, the inhibition was -1.61%.

Take `Cc1nc(Nc2cnn(CCO)c2)c2cc[nH]c2n1`: the inhibition (Concentration 50.0 uM, Number of replicates 2.0, Standard deviation 4.582 %) is -6.15%. As to `Cc1nn(C)c(NCc2nc(CO)cs2)c1C#N`, where the note is “Concentration 50.0 uM, Number of replicates 2.0, Standard deviation 1.694 %”, the inhibition came to 2.1%. `OC[C@H](Cc1ccccc1)Nc1ncnc2[nH]ccc12`: the inhibition is, setting by setting: (Concentration 50.0 uM, Number of replicates 2.0, Standard deviation 2.629 %) -1.29%; (Concentration 100.0 uM, Number of replicates 2.0, Standard deviation 0.62 %) 8.93%. With `Cc1[nH]c2ncnc(NC(=O)[C@@H]3CCO[C@@H]3C)c2c1C`, the inhibition (Concentration 50.0 uM, Number of replicates 2.0, Standard deviation 0.696 %) is 35.1%. In the case of `Cn1c(C(=O)NCCNC(=O)c2ccco2)cc2c(=O)n3ccccc3nc21`, under “Concentration 50.0 uM, Number of replicates 2.0, Standard deviation 1.378 %”, the inhibition was -4.47%. As for `O=C(NC1CCC(F)(F)CC1)c1ncnc2[nH]ccc12`, the inhibition is -3.47% (Concentration 49.75 uM, Number of replicates 2.0, Standard deviation 1.299 %) and -5.78% (Concentration 99.5 uM, Number of replicates 2.0, Standard deviation 1.382 %). Regarding `Cn1c(C(=O)NCCn2cccc2)cc2c(=O)n3ccccc3nc21`, the inhibition (Concentration 50.0 uM, Number of replicates 2.0, Standard deviation 2.478 %) came to 2.26%.

`Cc1ccc(C(=O)N2CCC(c3ccn4ncc(C(=O)N5CCCCC5)c4c3)CC2)c(=O)[nH]1`: the inhibition is, setting by setting: (Concentration 49.75 uM, Number of replicates 2.0, Standard deviation 1.294 %) 3.31%; (Concentration 99.5 uM, Number of replicates 2.0, Standard deviation 2.376 %) 3.66%.

Consider `O=C(N[C@H]1CCC[C@H]1C(=O)O)c1cnn2ccc(C3CCN(C(=O)c4ccccc4)CC3)cc12`, for which the inhibition was found to be 59.6% (Concentration 49.75 uM, Number of replicates 2.0, Standard deviation 2.492 %) and 73.5% (Concentration 99.5 uM, Number of replicates 2.0, Standard deviation 0.074 %). Take `O=C(NCC1(O)CCOCC1)c1cnn2ccc(C3CCN(C(=O)c4ccccc4)CC3)cc12`: the inhibition runs as follows: (Concentration 49.75 uM, Number of replicates 2.0, Standard deviation 3.347 %) -3.96%; (Concentration 99.5 uM, Number of replicates 2.0, Standard deviation 3.334 %) -1.1%. As for `CC(C)[C@@H](CO)[C@@H](Nc1ncnc2[nH]ccc12)C(C)C`, the inhibition is 6.65% (Concentration 49.75 uM, Number of replicates 2.0, Standard deviation 2.34 %) and 13.1% (Concentration 99.5 uM, Number of replicates 2.0, Standard deviation 2.712 %). Regarding `Cc1cccc([C@@H]2CCCN2c2ncnc3[nH]ccc23)n1`, the inhibition (Concentration 50.0 uM, Number of replicates 2.0, Standard deviation 4.141 %) amounted to 0.182%.

For the compound `C[C@]1(C(=O)N(CCC(=O)N2CCNCC2)Cc2cccc(Cl)c2)CCCN1`, the inhibition (Concentration 49.75 uM, Number of replicates 2.0, Standard deviation 5.247 %) was determined as 1.4% and the inhibition (Concentration 99.5 uM, Number of replicates 2.0, Standard deviation 0.402 %) was 2.13%. Regarding `O=C(c1cccc(Br)c1)N1CCC(c2ccn3ncc(C(=O)N4CCCCC4)c3c2)CC1`, for the setting “Concentration 50.0 uM, Number of replicates 2.0, Standard deviation 0.499 %”, the inhibition was 32.1%. For `O=C(Nc1nc2ccc(F)cc2[nH]1)c1cc(N2CCNC2=O)ccc1F`, the inhibition (Concentration 50.0 uM, Number of replicates 2.0, Standard deviation 3.412 %) is -7.71%. With `O=C(O)c1cnc(C(=O)N2CCC(c3ccn4ncc(C(=O)N5CCCCC5)c4c3)CC2)cn1`, the inhibition (Concentration 49.75 uM, Number of replicates 2.0, Standard deviation 0.482 %) worked out at 27.5% and the inhibition (Concentration 99.5 uM, Number of replicates 2.0, Standard deviation 1.164 %) was 46.4%. As to `Cc1nn(-c2ccccc2)c(C)c1[C@H]1COCCN1c1ncnc2[nH]ccc12`, the inhibition (Concentration 49.75 uM, Number of replicates 2.0, Standard deviation 1.442 %) is -0.042% and the inhibition (Concentration 99.5 uM, Number of replicates 2.0, Standard deviation 1.631 %) was -4.22%. As for `O=C(Nc1cnn(C2CCNCC2)c1)c1ncnc2[nH]ccc12`, the inhibition (Concentration 50.0 uM, Number of replicates 2.0, Standard deviation 5.148 %) was -1.9%. `Cc1cccc(Cl)c1S(=O)(=O)Nc1cnc2[nH]ncc2c1`: for the setting “Concentration 50.0 uM, Number of replicates 2.0, Standard deviation 1.912 %”, the inhibition is -0.254%. Regarding `Cc1[nH]c2ncnc(NC(=O)CCc3ccccc3)c2c1C`, the inhibition (Concentration 50.0 uM, Number of replicates 2.0, Standard deviation 2.066 %) was determined as 5.02%. Take `CO[C@@]1(C(=O)O)CCN(C(=O)c2ncnc3[nH]ccc23)C1`: the inhibition was -4.18% (Concentration 50.0 uM, Number of replicates 2.0, Standard deviation 2.289 %) and -3.71% (Concentration 100.0 uM, Number of replicates 2.0, Standard deviation 3.346 %). In the case of `Cn1cc(Br)c(CNC(=O)c2ccc(NC(=O)Nc3ccccc3)cc2)n1`, the inhibition (Concentration 49.75 uM, Number of replicates 2.0, Standard deviation 4.908 %) amounted to 4.31% and the inhibition (Concentration 99.5 uM, Number of replicates 2.0, Standard deviation 1.253 %) was 1.2%.
